# Laboratory results published in patent US20260159520A1, “HETEROBIFUNCTIONAL COMPOUNDS AND METHODS OF TREATING DISEASE” (Halda Therapeutics OpCo, Inc., priority 2022, published 2026).
# Target: T1, androgen receptor (Homo sapiens, UniProt P10275)
# T1 construct: endogenous in cells; host or cells: unnamed cells (cytosol fraction)
# T1 sequence (P10275 1-920): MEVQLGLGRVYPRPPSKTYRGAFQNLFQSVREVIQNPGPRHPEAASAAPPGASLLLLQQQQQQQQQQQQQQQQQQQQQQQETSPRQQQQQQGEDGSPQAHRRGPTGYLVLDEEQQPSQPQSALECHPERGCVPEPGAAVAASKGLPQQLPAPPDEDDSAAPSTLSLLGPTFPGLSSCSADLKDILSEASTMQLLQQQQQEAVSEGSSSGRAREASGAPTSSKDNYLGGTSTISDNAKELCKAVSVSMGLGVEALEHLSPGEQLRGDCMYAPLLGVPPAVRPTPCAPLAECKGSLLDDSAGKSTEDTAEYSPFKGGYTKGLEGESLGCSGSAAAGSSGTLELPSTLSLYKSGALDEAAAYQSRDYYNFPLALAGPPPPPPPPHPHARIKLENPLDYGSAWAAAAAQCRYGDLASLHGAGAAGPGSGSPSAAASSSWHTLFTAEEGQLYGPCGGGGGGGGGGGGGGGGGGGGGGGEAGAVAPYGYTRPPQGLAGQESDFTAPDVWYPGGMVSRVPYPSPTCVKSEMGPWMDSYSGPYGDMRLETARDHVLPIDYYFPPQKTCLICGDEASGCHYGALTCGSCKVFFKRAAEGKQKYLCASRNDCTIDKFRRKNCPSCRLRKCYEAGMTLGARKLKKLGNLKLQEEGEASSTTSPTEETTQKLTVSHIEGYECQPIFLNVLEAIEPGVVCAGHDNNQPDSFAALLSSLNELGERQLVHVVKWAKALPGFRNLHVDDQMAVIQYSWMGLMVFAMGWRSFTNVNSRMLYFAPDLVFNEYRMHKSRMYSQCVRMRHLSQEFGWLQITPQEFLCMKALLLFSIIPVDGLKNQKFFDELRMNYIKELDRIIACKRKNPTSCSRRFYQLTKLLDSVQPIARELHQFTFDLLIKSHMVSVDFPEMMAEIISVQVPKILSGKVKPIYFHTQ
# Assay: Binding affinity to androgen receptor ([3H]methyltrienolone radioligand, cell cytosol)
# Settings: Table 6
# Method: Fractions of cell cytosol ([…]) were incubated for 24 hr at 4° C. with 1 nM [^3H]methyltrienolone in the absence or presence of the test compound in a buffer containing 25 mM Hepes-Tris (pH 7.4), 1 mM EDTA, 10 mM Na2MoO4, 2 mM DTT, 5 μM triamcinolone acetonide, and 10% glycerol. Nonspecific binding was determined in the presence of 1 μM testosterone. Following incubation, the samples were filtered rapidly under vacuum through glass fiber filters (GF/B, Packard) presoaked with 0.3% PEI and rinsed several times with ice-cold 50 mM Tris-HCl using a 96-sample cell harvester (Unifilter, Packard). The filters were dried then counted for radioactivity in a scintillation counter (Topcount, Packard) using a scintillation cocktail (Microscint 0, Packard). The results are expressed as a percent inhibition of the control radioligand specific binding. The standard reference compound is testosterone, which is tested in each experiment at several concentrations to obtain a competition curve from which its IC50 is calculated.
row,Kd [nM],Compound
1,< 50,CCc1cnn2c(NCc3ccc(OCCCCN4CCN(CC5CCN(c6ncc(C(=O)N[C@H]7C(C)(C)[C@H](Oc8ccc(C#N)c(Cl)c8)C7(C)C)cn6)CC5)CC4)nc3)cc(N3CCCC[C@H]3CCO)nc12 [Compound I-43]
2,< 50,"CCc1cnn2c(NCc3ccc(OCCCN4CCN(CC5CCN(c6ccc(C(=O)N[C@H]7C(C)(C)[C@H](Oc8ccc(C#N)c(Cl)c8)C7(C)C)cn6)CC5)CC4)nc3)cc(N3CCCC[C@@H]3CCO)nc12 [Compound I-55, N-((1r,3r)-3-(3-chloro-4-cyanophenoxy)-2,2,4,4-tetramethylcyclobutyl)-6-(4-((4-(3-((5-(((3-ethyl-5-((R)-2-(2-hydroxyethyl)piperidin-1-yl)pyrazolo[1,5-a]pyrimidin-7-yl)amino)methyl)pyridin-2-yl)oxy)propyl)piperazin-1-yl)methyl)piperidin-1-yl)nicotinamide]"
3,< 50,"CCc1cnn2c(NCc3ccc(OCCCN4CCN(CC5CCN(c6ccc(C(=O)N[C@H]7C(C)(C)[C@H](Oc8ccc(C#N)c(Cl)c8)C7(C)C)cc6)CC5)CC4)nc3)cc(N3CCCC[C@@H]3CCO)nc12 [II-1, N-((1r,3r)-3-(3-chloro-4-cyanophenoxy)-2,2,4,4-tetramethylcyclobutyl)-4-(4-((4-(3-((5-(((3-ethyl-5-((R)-2-(2-hydroxyethyl)piperidin-1-yl)pyrazolo[1,5-a]pyrimidin-7-yl)amino)methyl)pyridin-2-yl)oxy)propyl)piperazin-1-yl)methyl)piperidin-1-yl)benzamide]"
4,< 50,CCc1cnn2c(NCc3ccc(OCCCN4CCN(C5CN(c6ncc(C(=O)N[C@H]7C(C)(C)[C@H](Oc8ccc(C#N)c(Cl)c8)C7(C)C)cn6)C5)CC4)nc3)cc(N3CCCC[C@H]3CCO)nc12 [Compound I-60]

# More lines, now with the values behind:
row,Compound,Kd [nM]
1,CCc1cnn2c(NCc3ccc(OCCCN4CCC(C5CN(c6ncc(C(=O)N[C@H]7C(C)(C)[C@H](Oc8ccc(C#N)c(Cl)c8)C7(C)C)cn6)C5)CC4)nc3)cc(N3CCCC[C@H]3CCO)nc12 [Compound I-61],< 50
2,CCc1cnn2c(NCc3ccc(OCCOCCOCCOCCOCCOC4CCN(c5ncc(C(=O)N[C@H]6C(C)(C)[C@H](Oc7ccc(C#N)c(Cl)c7)C6(C)C)cn5)CC4)nc3)cc(N3CCCC[C@H]3CCO)nc12 [Compound I-9],< 50
3,CCc1cnn2c(NCc3ccc(OCCN(C)c4ncc(C(=O)N[C@H]5C(C)(C)[C@H](Oc6ccc(C#N)c(Cl)c6)C5(C)C)cn4)nc3)cc(N3CCCC[C@H]3CCO)nc12 [Compound I-1],< 50
4,CCc1cnn2c(NCc3ccc(N4CCC(CN5CCC6CN(c7ncc(C(=O)N[C@H]8C(C)(C)[C@H](Oc9ccc(C#N)c(Cl)c9)C8(C)C)cn7)CCC6C5)CC4)nc3)cc(N3CCCC[C@H]3CCO)nc12 (some centres unmarked) [Compound I-71],< 50
5,CCc1cnn2c(NCc3ccc(OCCOCCOCCOCCOCCOCCOCCN(C)c4ncc(C(=O)N[C@H]5C(C)(C)[C@H](Oc6ccc(C#N)c(Cl)c6)C5(C)C)cn4)nc3)cc(N3CCCC[C@H]3CCO)nc12 [Compound I-5],< 50
6,"CCc1cnn2c(NCc3ccc(OCCOC4CCN(c5ncc(C(=O)N[C@H]6C(C)(C)[C@H](Oc7ccc(C#N)c(Cl)c7)C6(C)C)cn5)CC4)nc3)cc(N3CCCC[C@H]3CCO)nc12 [Compound I-7, N-((1r,3r)-3-(3-chloro-4-cyanophenoxy)-2,2,4,4-tetramethylcyclobutyl)-2-(4-(2-((5-(((3-ethyl-5-((S)-2-(2-hydroxyethyl)piperidin-1-yl)pyrazolo[1,5-a]pyrimidin-7-yl)amino)methyl)pyridin-2-yl)oxy)ethoxy)piperidin-1-yl)pyrimidine-5-carboxamide]",< 50
7,CCc1cnn2c(NCc3ccc(OCCOCC4CCN(CC5CCN(c6ncc(C(=O)N[C@H]7C(C)(C)[C@H](Oc8ccc(C#N)c(Cl)c8)C7(C)C)cn6)CC5)CC4)nc3)cc(N3CCCC[C@H]3CCO)nc12 [Compound I-45],< 50
